system: not listed separately; assay: physchem; format: physicochemical; settings: not given
Method: The pH-dependence of proton NMR chemical shifts was used to measure the pKa's of the ionizable lipid water-soluble analogues (WSA) following published methods5,6. Chemical shifts of piperazine, imidazole, 2-chloroacetic acid and acetic acid were used as internal pH indicators. Solutions for MC3-WSA were prepared with 100 mM KCl, 2 mM piperazine, 2 mM imidazole, and 5 mM water soluble ionizable lipid analogue in 95% H2O-5% D2O. Solutions for the terminal(N1) and aza amines(N2) at the p-position of carboxylic esters of C24-WSA were prepared with 100 mM KCl, 2 mM piperazine, 2 mM imidazole, 0.2 mM DSS, and 5 mM water soluble ionizable lipid analogue in 95% H2O-5% D2O. Solutions for the internal amine (N3) of C24-WSA were prepared with 100 mM KCl, 2 mM chloroacetic acid, 2 mM acetic acid, 0.2 mM DSS, and 5 mM water soluble ionizable lipid analogue in 95% H2O-5% D2O. Solutions were split into two equal volumes and one titrated to a lower pH using 0.1 M HCl and the other to an upper pH using 0.1 M NaOH where the lower and upper pH bracketed the desired range of pH. Intermediate pH values were obtained by mixing different proportions of these two solutions. NMR measurements were performed on a Bruker 400 MHz spectrometer where 1H spectra were acquired at each of ˜24 pH values ranging from the lower to upper pH. […] Chemical shifts from piperazine, imidazole, 2-chloroacetic acid, and acetic acid were then used to calculate the pH of each solution according to published methods5,6 and the chemical shifts of protons adjacent to each nitrogen in the ionizable lipid water sluble analogue headgroup were fit to the Henderson-Hasselbalch equation to provide the pKa of each Nitrogen. Spectra are in Supplementary FIG. 2.

Compound | difference between NMR-measured and theoretical pKas
CCCCCCCCCCC(CCCCCCCC)COC(=O)CCN(CCCCN1CCN(C)CC1)CCC(=O)OCC(CCCCCCCC)CCCCCCCCCC (centres unmarked) [Lipid C24, Bis(2-octyldodecyl) 3,3′-((4-(4-methylpiperazin-1-yl)butyl)azanediyl)dipropionate] | ≤ 0.4 units

system: HEK 293 cells; assay: Firefly Luciferase Assay for mRNA Delivery Efficiency / transfection in vitro; format: cell-based; set-up: key: +: successfully transfected HEK 293 cells in vitro; −: not active; settings: Table 12; HEK 293 cells in vitro
Description: FIG. 32 illustrates luciferase reported expression in vitro and in vivo.
In certain embodiments, the invention encompasses a new class of ionizable lipids (the Ionizable Lipids of the Invention) synthesized bearing two ionizable amines and two degradable ester linkers to linoleic acid tails or branched tails. DL=DiLinoleic Acid, ADDE=Azane Diyl DiEthyl, Cx/Cy=carbon spacers, DMA=DiMethylAmine, Pyr=Pyridine, PipZ=PiperaZine, PipD=PiperiDine, DIPA=DiIsopropylamine, DM=DiMethyl, BOD=BisOctylDecyl.
Summary: LNPs were formulated using total lipid concentration of 50 mM comprised of ionizable lipids/DSPC/Cholesterol/PEG-DMG (50:10:38.5:1.5 mol %). Each one of the lipids were solubilized in ethanol until a clear solution was observed. The four lipids were combined to get 50 mM total lipid concentration (25/5/19.25/0.75 mM respectively) and serial dilutions to get 27.74 mM. […] Purified mRNA was ethanol precipitated, washed and resuspended in nuclease-free water to reach a concentration of 1 mg/ml. […] 16 μl Lipid Mix and 32 μl mRNA solution were mixed on Setting 3 and ejected into 48 μl 1×DPBS pH 7.4. The formed LNPS were then diluted into an additional 96 μl 1×DPBS pH 7.4. LNPs were then dialyzed against 1×DPBS pH 7.4 for 6×1 hr. LNPs were then diluted so that 32 ul contained 200 ng and 12K HEK293 cells were transfected with the same […]. • A: Firefly Luciferase Assay for mRNA Delivery Efficiency. After 24 hours of transfection, transfected cells were conditioned to room temperature for 30 minutes prior to the Firefly Luciferase Assay. Quantilum Recombinant Luciferase standard curve was prepared in 10% EMEM in 5-fold serial dilutions. 50 ul of each standard point from the range of 3.9×10^−5 mg/ml to 4.88×10^−3 mg/ml were included in the microplate as a positive enzyme activity control (data not shown) to maintain a linearity of 10^7 RLU/mg/ml. The ONE-Glo substrate, previously conditioned to room temperature for at least 4 hours, was added to each untransfected, transfected and Quantilum wells in a ratio 1:1. Assay plates were incubated for 3 minutes in darkness and immediately introduced into the Cytation 5 Cell Imaging Multi-Mode Reader (Biotek) to read luminescence. The results are illustrated in FIG. 7. • B: Ribogreen Assay for mRNA Encapsulation Efficiency. 1×TE Buffer and Triton Buffer (2% v/v in 1×TE Buffer) were added in duplicates into a black microplate per LNP. LNPs were diluted to 4 ng/ul in 1×DPBS pH 7.4 and added to each TE/Triton well in a ratio 1:1. Two standard curves were included in the Ribogreen Assay, one containing mRNA and 1×TE Buffer and other containing mRNA and Triton Buffer. Each one of these standard curves were used to calculate the mRNA concentration in each TE Buffer or Triton Buffer. This approach using two standard curves is more accurate for calculating the encapsulation efficiency and mRNA concentrations, in comparison to a single standard curve. Standards were included in the microplate after diluted LNPs were added to the plate. Microplates were incubated at 37° C. for 10 minutes to extract LNPs with Triton. Ribogreen reagent was diluted 1:100 in 1×TE Buffer and added to each well in a ratio 1:1. Microplates were immediately introduced into the Cytation 5 Cell Imaging Multi-Mode Reader (Biotek) to read Fluorescence (Ex485/Em528). The results are illustrated in FIG. 8. • C: Dynamic Light Scattering for LNP Size (red dots are PDI right y axis). LNPs were diluted to 6.25 ng/ul in 1×DPBS pH 7.4 and transferred into a quartz cuvette (ZEN2112) to measure size by Dynamic Light Scattering (DLS) in the Zetasizer Nano ZS (Malvern Panalytical) using particle RI of 1.45 and Absorption of 0.001 in 1×PBS at 25° C. with viscosity of 1.02 cP and RI of 1.335.

Compound | Transfection +/−
CCCCC/C=C\C/C=C\CCCCCCCCOC(=O)CCCCN(CCCCC(=O)OCCCCCCCC/C=C\C/C=C\CCCCC)CCCCN1CCCCC1 (racemic) [DL-ADDE-C4/C4-PipD] | +
CCCCC/C=C\C/C=C\CCCCCCCCOC(=O)CCN(CCN)CCC(=O)OCCCCCCCC/C=C\C/C=C\CCCCC (racemic) [DL-ADDE-C2/C2-DeBocA] | −
CCCCC/C=C\C/C=C\CCCCCCCCOC(=O)CCN(CCC(=O)OCCCCCCCC/C=C\C/C=C\CCCCC)CCN(C(C)C)C(C)C (racemic) [DL-ADDE-C2/C2-DIPA] | −
CCCCC/C=C\C/C=C\CCCCCCCCOC(=O)CCN(CCC(=O)OCCCCCCCC/C=C\C/C=C\CCCCC)CCN1CCCCC1 (racemic) [DL-ADDE-C2/C2-PipD] | +
CCCCCCCCCCC(CCCCCCCC)COC(=O)CCN(CCCCN1CCN(C)CC1)CCC(=O)OCC(CCCCCCCC)CCCCCCCCCC (centres unmarked) [BOD-ADDE-C2/C4-4-Me-PipZ] | +
CCCCC/C=C\C/C=C\CCCCCCCCOC(=O)CCCCN(CCCCC(=O)OCCCCCCCC/C=C\C/C=C\CCCCC)CCCCN1CCN(C)CC1 (racemic) [DL-ADDE-C4/C4-4Me-PipZ] | +
CCCCC/C=C\C/C=C\CCCCCCCCOC(=O)CCN(CCNC(=O)OC(C)(C)C)CCC(=O)OCCCCCCCC/C=C\C/C=C\CCCCC (racemic) [DL-ADDE-C2/C2-BocA] | −
CCCCC/C=C\C/C=C\CCCCCCCCOC(=O)CCN(CCCN1CCN(C)CC1)CCC(=O)OCCCCCCCC/C=C\C/C=C\CCCCC (racemic) [DL-ADDE-C2/C3-4Me-PipZ] | +
CCCCC/C=C\C/C=C\CCCCCCCCOC(=O)CCCCN(CCCCC(=O)OCCCCCCCC/C=C\C/C=C\CCCCC)CCCCN(C)C (racemic) [DL-ADDE-C4/C4-DMA] | +
CCCCC/C=C\C/C=C\CCCCCCCCOC(=O)CCN(CCC(=O)OCCCCCCCC/C=C\C/C=C\CCCCC)CCN1CCN(C)CC1 (racemic) [DL-ADDE-C2/C2-4Me-PipZ] | +
CCCCC/C=C\C/C=C\CCCCCCCCOC(=O)CCN(CCCCN1CCN(C)CC1)CCC(=O)OCCCCCCCC/C=C\C/C=C\CCCCC (racemic) [DL-ADDE-C2/C4-4Me-PipZ] | +
CCCCC/C=C\C/C=C\CCCCCCCCOC(=O)CCN(CCCN(C)C)CCC(=O)OCCCCCCCC/C=C\C/C=C\CCCCC (racemic) [DL-ADDE-C2/C3-DMA] | +
CCCCC/C=C\C/C=C\CCCCCCCCOC(=O)CCN(CCCCN(C)C)CCC(=O)OCCCCCCCC/C=C\C/C=C\CCCCC (racemic) [DL-ADDE-C2/C4-DMA] | +
CCCCC/C=C\C/C=C\CCCCCCCCOC(=O)CCN(CCC(=O)OCCCCCCCC/C=C\C/C=C\CCCCC)CC(C)(C)CN(C)C (racemic) [DL-ADDE-C2/C3-DM-DMA] | −
CCCCCCCCCCC(CCCCCCCC)COC(=O)CCN(CCC(=O)OCC(CCCCCCCC)CCCCCCCCCC)CCN1CCN(C)CC1 (centres unmarked) [BODD-ADDE-C2/C2-4Me-PipZ] | +
CCCCC/C=C\C/C=C\CCCCCCCCOC(=O)CCN(CCCN1CCCC1)CCC(=O)OCCCCCCCC/C=C\C/C=C\CCCCC (racemic) [DL-ADDE-C2/C3-Pyr] | +
CCCCC/C=C\C/C=C\CCCCCCCCOC(=O)CCN(CCC(=O)OCCCCCCCC/C=C\C/C=C\CCCCC)CCN(C)C (racemic) [DL-ADDE-C2/C2-DMA] | +

same assay, conditions: Table 13A

Compound | Transfection +/−
CCCCC/C=C\C/C=C\CCCCCCCCOC(=O)CCN(CCC(=O)OCCCCCCCC/C=C\C/C=C\CCCCC)CCC(C)C (racemic) [DL-ADDE-IP] | −
CCCCC/C=C\C/C=C\CCCCCCCCOC(=O)CCN(CCO)CCC(=O)OCCCCCCCC/C=C\C/C=C\CCCCC (racemic) [DL-ADDE-EA] | −
CCCCC/C=C\C/C=C\CCCCCCCCOC(=O)CCN(CCCO)CCC(=O)OCCCCCCCC/C=C\C/C=C\CCCCC (racemic) [DL-ADDE-PA] | −

same assay, conditions: Table 13C

Compound | Transfection +/−
CCCCC/C=C\C/C=C\CCCCCCCC(=O)NCCN(C)C [L-Amide-DMA] | −
CCCCC/C=C\C/C=C\CCCCCCCC(=O)NCCSSCCN [L-Amide-AEDS] | −
CCCCC/C=C\C/C=C\CCCCCCCC(=O)NCCN [L-Amide-AE] | −

system: not given; assay: not given; format: physicochemical; settings: Table 11a
Method: In certain embodiments, the pKa of the Ionizable Lipids of the Invention included in the LNP is measured by fluorescent enhancement of an anionic lipophilic dye TNS binding to the LNP containing the ionizable lipid. Prior studies have shown that the TNS pKa needs to be near 6.5 for efficient delivery to liver upon IV administration. The pKa in the aqueous phase can be predicted by software such ACDLabs Percepta, resulting in pKas that are higher than the TNS pKa. Given the importance of the LNP pKa in determining their efficiency, we developed new methods (zeta potential, ^1H NMR, modeling) to link the intrinsic pKa of the ionizable lipid to LNP ionization properties, in order to rationally design effective systems for mRNA delivery.
In certain embodiments, the hydrophilic DMG-PEG forms the shell of the LNP. The amount of nucleic acid is represented by the NP mole ratio of the amine on the ionizable lipid to the phosphate groups on the nucleic acid backbone and is typically 3-6. In certain embodiments, the pKa of the LNP to be in the 6-7 range corresponding to the pH in the early endosome. […] The pKa of the LNP was measured using the pH-dependence of fluorescence enhancement of the anionic dye TNS. In certain embodiments, the pKa-dependent endosomal release mechanism was described as an ion-pairing event between the cationic protonated ionizable lipid and anionic endosomal phospholipids where a divergent cone-shape lipid tail of the ionizable lipid facilitates membrane rupture.

Compound | ΔpKa = Classic-Galas | ΔpKa = Classic-TNS
CCCCCCCCCOC(=O)CCCCCCCN(CCO)CCCCCCCC(=O)OC(CCCCCCCC)CCCCCCCC [Moderna Lipid 5] | 3.34 | 2.34
CCCCC/C=C\C/C=C\CCCCCCCCOCC(CN(C)C)OCCCCCCCC/C=C\C/C=C\CCCCC (centres unmarked) [DLinDMA, 1,2-dilinoleyloxy-N,N-dimethylaminopropane] | 1.6 | 1.8
CCCCC/C=C\C/C=C\CCCCCCCCC1(CCCCCCCC/C=C\C/C=C\CCCCC)OCC(CCN(C)C)O1 (centres unmarked) [KC2] | 2.32 | 2.62
CCCCCCCC(=O)N(CCCN(C)C)C(CCCCCCCCC(=O)OC(CCCCCC)CCCCCC)CCCCCCCCC(=O)OC(CCCCCC)CCCCCC [Acuitas Compound 10] | 3.04 | 3.24
